Assay results: ChEMBL document CHEMBL5137025, “Tuberculosis Drug Discovery: Challenges and New Horizons” (J Med Chem, 2022)
≈ marks a conversion by molar mass, not a printed value.

Experiments:
[1] = test system: Mycobacterium tuberculosis; experiment: Antibacterial activity against Mycobacterium tuberculosis CDC1551 infected in mouse J774 cells assessed as inhibition of bacterial growth at 20 uM incubated for 24 hrs relative to control; type: functional; parameters: scale not given: the % may be the effect or the level left
[2] = Protein binding in mouse plasma; type: ADME, cell-free; settings: read-out: PPB (converted)
[3] = Cytotoxicity against African green monkey Vero cells treated for 72 hrs by microplate reader method; type: toxicity, cell-based; settings: chlorocebus sabaeus
[4] = Metabolic stability in mouse liver microsomes assessed as half life; type: ADME, Microsome
[5] = test system: Mycobacterium tuberculosis; experiment: Antibacterial activity against Mycobacterium tuberculosis in acute Mtb infection C3HeB/FeJ mouse model assessed as reduction in log10 CFU in lungs at 250 mg/kg, po via gavage for 2 weeks; type: functional
[6] = Kinetic aqueous solubility of the compound; type: physicochemical; settings: buffer; read-out: Kinetic_solubility
[7] = test system: Mycobacterium tuberculosis; experiment: Antibacterial activity against Mycobacterium tuberculosis in chronic Mtb infection C3HeB/FeJ mouse model assessed as reduction in log10 CFU in lungs at 250 mg/kg, po via gavage for 2 weeks; type: functional
[8] = test system: Mycobacterium tuberculosis; type: functional, H37Rv; settings: dose 50 mg/kg; route po; time 3 weeks
[9] = test system: Mycobacterium tuberculosis; type: functional; settings: H37Rv, 168 h, time 7 day
[10] = test system: Mycobacterium tuberculosis; type: functional, H37Rv; settings: dose 100 mg/kg; route po; time 3 weeks
[11] = Metabolic stability in human liver microsomes assessed as compound remaining measured after 1 hr in presence of NADP+ by LC-MS/MS analysis; type: ADME, Microsome; settings: read-out: Stability
[12] = Metabolic stability in mouse liver microsomes assessed as compound remaining measured after 1 hr in presence of NADP+ by LC-MS/MS analysis; type: ADME, Microsome; settings: read-out: Stability
[13] = test system: Mycobacterium tuberculosis; type: functional; settings: H37Rv, time 6 day
Cytochrome P450 3A4 = Cytochrome P450 3A4 (Homo sapiens, UniProt P08684); experiment: Inhibition of CYP3A4 in human liver microsome using midazolam as substrate incubated for 10 mins in presence of NADP+ by LC-MS/MS analysis; type: ADME, microsomes
HepG2 [14] = experiment: Cytotoxicity against human HepG2 cells treated for 48 hrs by resazurin dye based assay; type: functional
[15] = test system: Mycobacterium tuberculosis; type: functional, H37Rv; settings: dose 100 mg/kg; route po; time 4 weeks
[16] = test system: Mycobacterium tuberculosis; type: functional, H37Rv; settings: dose 3.1 mg/kg; route po; time 4 weeks
[17] = test system: Mycobacterium tuberculosis; experiment: Antibacterial activity against Mycobacterium tuberculosis Erdman in acute Mtb infection BALB/c mouse model assessed as reduction in log10 CFU in lungs at 50 mg/kg, po via gavage for 8 weeks; type: functional
[18] = Cytotoxicity against African green monkey Vero cells assessed as reduction in cell viability treated for 72 hrs by CCK8 assay; type: toxicity, cell-based; settings: chlorocebus sabaeus
[19] = Cytotoxicity against African green monkey Vero cells assessed as reduction in cell viability treated for 3 days by Cell Titer Glo assay; type: toxicity, cell-based; settings: chlorocebus sabaeus, time 3 day
[20] = Acute toxicity in 10 to 14 hr fasted Sprague-Dawley rat assessed as maximum tolerated dose administered orally via gavage; settings: in vivo, time 10-14 hrs, route po
[21] = Oral bioavailability in Sprague-Dawley rat at 10 mg/kg via gavage measured for 0.25 to 96 hrs by LC/MS analysis; type: ADME, organism-based; settings: in vivo, time 0.25-96 hrs
[22] = Half life in Sprague-Dawley rat at 10 mg/kg, po via gavage measured for 0.25 to 96 hrs by LC/MS analysis; type: ADME, organism-based; settings: in vivo, time 0.25-96 hrs
[23] = biological target: Voltage-gated inwardly rectifying potassium channel KCNH2 (Homo sapiens, UniProt Q12809); experiment: Inhibition of hERG expressed in human HEK293 cells by manual patch clamp method; type: toxicity, cell-based
[24] = test system: Mycobacterium tuberculosis; type: functional, H37Rv; settings: dose 200 mg/kg; route po; time 4 weeks
[25] = test system: Mycobacterium tuberculosis; type: functional; settings: H37Rv
[26] = test system: Mycobacterium tuberculosis; type: functional; settings: H37Rv, 336 h, time 14 day
[27] = Cytotoxicity against human THP-1 cells assessed as reduction in cell viability treated for 96 hrs by MTT assay; type: toxicity, cell-based
HepG2 [28] = experiment: Cytotoxicity against human HepG2 cells assessed as reduction in cell viability treated for 3 days by resazurin dye based assay; type: functional; settings: HepG2, 72 h, time 3 day
[29] = test system: Mycobacterium tuberculosis; type: functional, H37Rv; settings: dose 150 mg/kg; route po; time 10 day
[30] = test system: Mycobacterium tuberculosis; experiment: Antibacterial activity against Mycobacterium tuberculosis Erdman in acute Mtb infection BALB/c mouse model assessed as reduction in log10 CFU in lungs at 100 mg/kg, po qd via gavage for 4 weeks; type: functional
[31] = test system: Mycobacterium tuberculosis; type: functional; settings: H37Rv, time 14-21 day
[32] = test system: Mycobacterium tuberculosis; type: functional, H37Rv; settings: dose 100 mg/kg; route po; time 2 weeks
[33] = test system: Mycolicibacterium smegmatis; experiment: Inhibition of ATP synthesis in Mycobacterium smegmatis derived membrane vesicle incubated for 60 mins by luciferase based assay; type: functional; settings: 1 h
[34] = test system: Mycobacterium tuberculosis; experiment: microbe, parasite or virus in culture; settings: H37Rv
Description: Antibacterial activity against Mycobacterium tuberculosis H37Rv assessed as inhibition of bacterial growth

[35] = test system: Mycobacterium tuberculosis; type: functional, H37Rv; settings: dose 100 mg/kg; route po; time 4 weeks; remark: listed apart in the source
[36] = Solubility of the compound in microbiological medium at pH 6.8; type: physicochemical
[37] = Half life in BALB/c mouse at 200 mg/kg, po measured for 0.5 to 24 hrs by LC-MS analysis; type: ADME, organism-based; settings: in vivo, time 0.5-24 hrs
[38] = Cytotoxicity against African green monkey Vero cells treated for 2 days by Cell Titer Glo assay; type: toxicity, cell-based; settings: chlorocebus sabaeus, time 2 day
[39] = test system: Mycobacterium tuberculosis; type: functional; settings: H37Rv, 120 h, time 5 day
[40] = test system: Mycobacterium tuberculosis; experiment: Antibacterial activity against Mycobacterium tuberculosis Erdman in chronic Mtb infection BALB/c mouse model assessed as reduction in log10 CFU in lungs at 200 mg/kg, po via gavage for 30 days; type: functional; settings: time 30 day
[41] = test system: Mycobacterium tuberculosis; experiment: Antibacterial activity against Mycobacterium tuberculosis Erdman in chronic Mtb infection BALB/c mouse model assessed as reduction in log10 CFU in lungs at 100 mg/kg, po via gavage for 30 days in presence of 1-aminobenzotriazole; type: functional; settings: time 30 day
[42] = test system: Mycobacterium tuberculosis; experiment: Antibacterial activity against Mycobacterium tuberculosis Erdman in chronic Mtb infection BALB/c mouse model assessed as reduction in log10 CFU in lungs at 200 mg/kg, po via gavage for 30 days in presence of 1-aminobenzotriazole; type: functional; settings: time 30 day
[43] = test system: Mycobacterium tuberculosis; type: functional; settings: H37Rv, 216 h, time 9 day
[44] = Metabolic stability in human liver S9 microsomes assessed as half life in presence of NADPH by LC-MS/MS analysis; type: ADME
[45] = Permeability in human Caco2 cells treated for 1 to 2 hrs by LC-MS/MS analysis; type: ADME, cell-based; settings: Caco-2, time 1-2 hrs, read-out: permeability
A549 = experiment: Cytotoxicity against human A549 cells treated for 72 hrs by MTT assay; type: functional
[46] = test system: Mycobacterium tuberculosis; experiment: Bactericidal activity against Mycobacterium tuberculosis H37Rv in acute Mtb infection BALB/c mouse model assessed as reduction in relative light unit at 100 mg/kg for 6 days; type: functional; settings: time 6 day
[47] = Metabolic stability in mouse liver microsome assessed as half life in presence of NADPH measured upto 60 mins by LC-MS/MS analysis; type: ADME; settings: liver microsomes

Chain of Cytochrome P450 3A4 (P08684 whole entry): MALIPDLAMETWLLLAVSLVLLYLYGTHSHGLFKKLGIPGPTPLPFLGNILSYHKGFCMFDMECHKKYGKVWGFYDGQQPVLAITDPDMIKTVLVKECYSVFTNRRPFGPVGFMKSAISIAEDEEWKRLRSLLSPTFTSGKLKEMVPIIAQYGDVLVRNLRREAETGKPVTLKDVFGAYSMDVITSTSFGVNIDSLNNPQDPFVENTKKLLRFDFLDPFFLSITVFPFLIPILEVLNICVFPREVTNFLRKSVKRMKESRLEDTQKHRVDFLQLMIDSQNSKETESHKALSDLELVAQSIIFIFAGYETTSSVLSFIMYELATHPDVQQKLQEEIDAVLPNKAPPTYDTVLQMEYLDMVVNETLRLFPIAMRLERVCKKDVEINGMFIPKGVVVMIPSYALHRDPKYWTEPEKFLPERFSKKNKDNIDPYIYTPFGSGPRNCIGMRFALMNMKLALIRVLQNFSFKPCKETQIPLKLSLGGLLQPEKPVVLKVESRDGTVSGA
Chain of Voltage-gated inwardly rectifying potassium channel KCNH2 (Q12809 whole entry): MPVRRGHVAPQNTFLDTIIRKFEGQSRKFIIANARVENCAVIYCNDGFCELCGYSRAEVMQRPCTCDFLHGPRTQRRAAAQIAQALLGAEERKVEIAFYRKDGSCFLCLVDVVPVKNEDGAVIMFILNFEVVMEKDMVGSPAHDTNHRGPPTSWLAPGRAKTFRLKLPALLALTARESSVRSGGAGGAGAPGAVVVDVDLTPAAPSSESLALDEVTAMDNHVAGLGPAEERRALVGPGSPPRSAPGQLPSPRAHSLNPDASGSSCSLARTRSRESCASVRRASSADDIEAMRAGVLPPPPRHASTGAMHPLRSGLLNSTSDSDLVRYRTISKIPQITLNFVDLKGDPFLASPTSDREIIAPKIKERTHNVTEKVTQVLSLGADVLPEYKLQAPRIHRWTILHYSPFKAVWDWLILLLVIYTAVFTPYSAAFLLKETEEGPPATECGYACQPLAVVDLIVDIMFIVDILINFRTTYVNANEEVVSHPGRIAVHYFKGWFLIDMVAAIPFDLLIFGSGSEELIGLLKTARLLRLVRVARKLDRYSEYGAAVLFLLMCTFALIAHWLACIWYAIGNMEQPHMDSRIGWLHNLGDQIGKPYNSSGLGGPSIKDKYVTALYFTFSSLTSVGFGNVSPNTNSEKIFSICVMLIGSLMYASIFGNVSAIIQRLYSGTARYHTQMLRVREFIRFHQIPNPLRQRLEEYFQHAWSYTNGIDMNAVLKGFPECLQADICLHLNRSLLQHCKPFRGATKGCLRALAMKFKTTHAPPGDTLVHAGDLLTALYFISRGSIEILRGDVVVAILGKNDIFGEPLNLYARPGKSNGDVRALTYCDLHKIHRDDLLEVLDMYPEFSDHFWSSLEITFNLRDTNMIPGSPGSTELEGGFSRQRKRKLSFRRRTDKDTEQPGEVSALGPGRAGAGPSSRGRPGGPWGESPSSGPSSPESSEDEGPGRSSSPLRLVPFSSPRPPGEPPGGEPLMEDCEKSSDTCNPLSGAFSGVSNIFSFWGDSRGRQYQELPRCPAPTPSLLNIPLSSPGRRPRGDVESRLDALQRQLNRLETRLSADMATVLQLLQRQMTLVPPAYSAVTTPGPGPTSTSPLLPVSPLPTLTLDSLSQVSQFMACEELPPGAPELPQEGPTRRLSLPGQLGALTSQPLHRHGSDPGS

With `CCSc1ncc(CN2CCN(c3nc4ccccc4o3)CC2)cn1` the Activity [1] was 54%, the fraction unbound [2] was 0.03 and the CC50 at 72 h [3] was greater than 141 µM. For the same compound, the half-life [4] was 49 min, the Activity [5] was 0.9 log10CFU and the solubility kinetic [6] was 76 µM (≈ 27 µg/mL). The Activity [7] was 0.7 log10CFU.

For `CC(=O)NC[C@@H]1OC(=O)N2c3cc(F)c(N4CCSCC4)cc3OC[C@@H]12`, the Activity [8] was “>=3 log10CFU”, the MIC90 [9] was 0.08 µM (≈ 0.0305 µg/mL) and the Activity [10] was 5.1 log10CFU.

For `CC(C)c1ccc(-c2nc(CN3CCN(c4ccnc5cc(-c6cccnc6)ccc45)CC3)no2)cc1`, the remaining at 1 h [11] was 40%, the remaining at 1 h [12] was 1.2% and the MIC [13] was 1 µM (≈ 0.491 µg/mL). The IC50 (Cytochrome P450 3A4) was greater than 25 µM, the CC50 (HepG2 [14]) was greater than 130 µM and the Activity [15] was 0.6 log10CFU.

Compound `COc1ccn2nc(C)c(C(=O)NCc3ccc(N4CCC(c5ccc(OC(F)(F)F)cc5)CC4)cc3)c2c1` has an Activity [16] of 2.2 log10CFU, an Activity [17] of 0.3 log10CFU and a CC50 at 72 h [18] greater than 100 µM. It also gave a CC50 at 72 h [19] greater than 100 µM, an MTD [20] greater than 2000 mg/kg and a bioavailability [21] of 94%. The half-life [22] was 1140 min, the IC50 [23] was greater than 30 µM and the Activity [24] was 2.2 log10CFU. For the same compound, the MIC90 [25] was 0.011 µM (≈ 0.00592 µg/mL).

For `O=[N+]([O-])c1cc2cccnc2c2ncccc12`, the MIC99 [26] was 0.78 µM (≈ 0.176 µg/mL) and the CC50 at 96 h [27] was greater than 25 µM.

Compound `CCSc1nc(NC)c2ccc(F)c(F)c2n1` has a CC50 (HepG2 [28]) of 153 µM, an MIC90 [13] of 0.2 µM (≈ 0.0511 µg/mL) and an Activity [29] of 0.5 log10CFU.

`O=C1C=CN(c2c(F)cc(N3C[C@H](CNc4ccon4)OC3=O)c(F)c2F)CC1` [CONTEZOLID] showed an Activity [30] of 2.3 log10CFU and an MIC [31] of 1.2 µM (≈ 0.49 µg/mL).

`CN(C)CCOc1ncc(Nc2cc(-c3ccccc3)nc3cc(-c4ccc(F)cc4)nn23)cc1F` gave an Activity [32] of 1.5 log10CFU, an IC50 [33] of 500 nM and an MIC80 [34] of 6.2 µM (≈ 3.02 µg/mL).

Compound `Cc1cnc2c(c1)cc([N+](=O)[O-])c1cccnc12` has an Activity [35] of 1 log10CFU and an MIC99 [26] of 0.2 µM (≈ 0.0478 µg/mL).

In the case of `Cc1cn2c(C(=O)NCc3ccc(N4CCN(c5ccc(C(F)(F)F)cn5)CC4)c(F)c3)c(C)nc2s1`, the solubility [36] is reported as 50 µM (≈ 26.6 µg/mL), the half-life [37] is reported as greater than 1440 min and the CC50 at 48 h [38] is reported as greater than 100 µM. It also gave an MIC90 [39] of 8 nM (≈ 0.00426 µg/mL), an Activity [40] of 0.3 log10CFU and an Activity [41] of 0.3 log10CFU. It also gave an Activity [42] of 0.6 log10CFU, an MIC [43] of 1.1 µM (≈ 0.586 µg/mL) and a half-life [44] of 28 min. It also gave a Papp [45] of less than 1 ×10⁻⁶ cm/s.

Compound `CC1(C)CCC(OC(=O)Nc2cc(O)cc(Cc3ccccc3)c2)CC1` has a CC50 (A549) of 64 µM, an Activity [46] of 1.3 log10RLU and a half-life [47] of 1.8 min. It also gave an MIC90 [34] of 1.8 µM (≈ 0.636 µg/mL).
